This note sets out measurements from US12285407B2, “Bis-indolylmethane derivatives and uses thereof” (The University of The West Indies, priority 2018, dated 2025).

Experiment [1] concerns Streptococcus pyogenes ATCC 19615. In words: Broth microdilution MIC of SP-BIMs. Format: cell-based.
For experiment [2], the system named is Bacillus cereus ATCC 14579. As to the kind of experiment: Broth microdilution MIC of SP-BIMs. Format: cell-based. For orientation: Dilution methods test growth across graded concentrations, often in twofold steps.
Experiment [3] relates to Enterococcus faecium ATCC 19434. As to the kind of experiment: Broth microdilution MIC of SP-BIMs. In kind it is cell-based.
The test system of experiment [4] is Corynebacterium diphtheriae ATCC 27010. In words: Broth microdilution MIC of SP-BIMs. In kind it is cell-based.
Experiment [5] concerns Staphylococcus aureus ATCC 12600. In words: Broth microdilution MIC of SP-BIMs. In kind it is cell-based.
The subject of experiment [6] is Klebsiella pneumoniae ATCC 49472. In words: Broth microdilution MIC of SP-BIMs. Format: cell-based.
The subject of experiment [7] is Escherichia coli ATCC 35218. As to the kind of experiment: Broth microdilution MIC of SP-BIMs. Format: cell-based.
The subject of experiment [8] is Salmonella typhimurium ATCC 14028. As to the kind of experiment: Broth microdilution MIC of SP-BIMs. The conditions noted are these: Salmonella enterica, read-out: MIC Salmonella tvpkimurium ATCC 14028. Format: cell-based. An excerpt:
Reference microorganisms used in this study included: Bacillus cereus (American Type Culture Collection (ATCC) No. 14579), Streptococcus pyogenes (ATCC No. 19615), Staphylococcus aureus (ATCC No. 12600), Enterococcus faecium (ATCC No. 19434), Corynebacterium diphtheriae (ATCC No. 27010), Escherichia coli (ATCC No. 35218), Salmonella typhimurium (ATCC No. 14028), Pseudomonas aeruginosa (ATCC No. 27853), Klebsiella pneumoniae (ATCC No. 49472), and Candida albicans (ATCC No. 22972).
Prior to each experiment, cultures were streaked onto clean BHI agar plates and incubated at 35° C. for 24 hours. Colonies of the respective cultures were selected and inoculated in phosphate buffer saline (pH 7.5) to a 0.5 McFarland turbidity standard (equivalent to 10^8 CFU mL^−1). The bacterial suspension was then diluted 1:100 in cation adjusted Mueller Hinton Broth (ca-MHB) (Oxoid Ltd, Basingstoke, Hampshire, England).
Stock solutions (50 mg mL^−1) of the SP-BIM test compounds were prepared in DMSO and stored at 4° C. Working preparations of each compound was made up to 1 mg/mL in sterile deionized water with a final DMSO concentration of 10%.
To assess the antibiotic properties of the library of SP-BIMs, the broth microdilution assay was performed in 96-well microplates according to the Clinical and Laboratory Standards Institute 2014 Guidelines (CLSI 2014). The broth microdilution assay was used to determine the minimum inhibitory concentration (MIC). […] Bacterial cells (˜10^6 CFU mL^−1) were inoculated into cation adjusted-Mueller Hinton broth containing the test compound in a twofold serial dilution ranging between 250 μg mL^−1 and 0.02 μg mL^−1. Plates were incubated at 35° C. for 18 hours after which 50 μL of 5% resazurin solution was added to each well. Resazurin is a blue dye which, upon reduction by living cells, turns to a pink resorufin product. Plates were shaken for 1 hour after the addition of the dye. The MIC was recorded as the well with the lowest concentration of test compound where no color change was observed.

The test system of experiment [9] is Pseudomonas aeruginosa ATCC 27853. In words: Broth microdilution MIC of SP-BIMs. In kind it is cell-based.
Experiment [10] concerns Candida albicans ATCC 22972. In words: Broth microdilution MIC of SP-BIMs. Format: cell-based.
A further experiment deals with Streptococcus pneumoniae. In words: Adjuvant broth microdilution (antibiotic MIC with SP-BIM at 50 μg/mL). In kind it is cell-based. The conditions noted are these: Streptococcus pneumoniae, Streptococcus pneumonia, SP-BIM at 50 μg mL^−1.
In a further experiment the test system is MRSA. The description is as above. Format: cell-based, Staphylococcus aureus. The conditions noted are these: Staphylococcus aureus, antibiotic alone, Table 4, read-out: MIC of antibiotic, No compound.
The test system of a further experiment is Klebsiella pneumoniae. Described as above. The settings on record: Klebsiella pneumoniae; antibiotic alone; Table 7; read-out: MIC of antibiotic, No compound. Format: cell-based.
Setting [11] is: ATCC19615, SP-BIM alone, read-out: MIC Streptococcus pyogenes ATCC 19615.
[12] abbreviates: ATCC14579, SP-BIM alone, read-out: MIC Bacillus cereus ATCC 14579.
[13] abbreviates: ATCC19434, SP-BIM alone, read-out: MIC Enterococcus faecium ATCC 19434.
[14] abbreviates: ATCC27010, SP-BIM alone, read-out: MIC Corynebacterium diphtheriae ATCC 27010.
Setting [15] is: ATCC12600, SP-BIM alone, read-out: MIC Staphylococcus aureus ATCC 12600.
Setting [16] is: ATCC49472, SP-BIM alone, read-out: MIC Klebisella pneumoniae ATCC 49472.
Setting [17] is: ATCC35218, SP-BIM alone, read-out: MIC Escherichia coli ATCC 35218.
Where [18] appears, read: ATCC27853, SP-BIM alone, read-out: MIC Pseudomonas aeruginosa ATCC 27853.
The mark [19] stands for this setting: ATCC22972, SP-BIM alone, read-out: MIC Candida albicans ATCC 22972.
[20] abbreviates: read-out: MIC of Kanamvcin with SP-BIM.
[21] abbreviates: read-out: MIC of Vancomvcin with SP-BIM.

Where two headings read alike, the source gives them in different places. A value given as a limit tells only on which side of the number the result lay.

As usually defined, the MIC is the lowest concentration found to suppress growth.

As to `CC(C)(C)c1cc(C(c2c[nH]c3ccccc23)c2c[nH]c3ccccc23)c(O)c(C(C)(C)C)c1` [SP-BIM 3, [bis(indol-3-yl)-3,5-di-tert-butyl-2-hydroxyphenyl]methane], the MIC in [1] (setting [11]), in experiment [2] (setting [12]), in [3] (setting [13]), in [4] (setting [14]), in experiment [5] (setting [15]) and in experiment [6] (setting [16]) was more than 250 µg/mL in each case. Moreover, the MIC in experiment [7] (setting [17]) was more than 250 µg/mL; in experiment [8] it was 250 µg/mL; in experiment [9] (setting [18]), 250 µg/mL; in experiment [10] (setting [19]), 250 µg/mL; in the experiment with Streptococcus pneumoniae (setting [20]), 125 µg/mL; in the experiment on Streptococcus pneumoniae (setting [21]) it was 1 µg/mL.
Turning to `c1ccc2c(c1)cc(C(c1c[nH]c3ccccc13)c1c[nH]c3ccccc13)c1ccccc12` [SP-BIM 14, bis[indol-3-yl)-phenanthren-9-ylmethane], the MIC in [1] (ATCC19615, read-out: MIC Streptococcus pyogenes ATCC 19615) is 125 µg/mL; in experiment [2] (ATCC14579, read-out: MIC Bacillus cereus ATCC 14579) it was 125 µg/mL; in experiment [3] (ATCC19434, read-out: MIC Enterococcus faecium ATCC 19434), 125 µg/mL; in [4] (ATCC27010, read-out: MIC Corynebacterium diphtheriae ATCC 27010) it was more than 250 µg/mL; in experiment [5] (ATCC12600, read-out: MIC Staphylococcus aureus ATCC 12600) it was more than 250 µg/mL; in [6] (ATCC49472, read-out: MIC Klebisella pneumoniae ATCC 49472), more than 250 µg/mL. Moreover, the MIC in [7] (ATCC35218, read-out: MIC Escherichia coli ATCC 35218) is more than 250 µg/mL; in experiment [8], 250 µg/mL; in [9] (ATCC27853, read-out: MIC Pseudomonas aeruginosa ATCC 27853), 250 µg/mL; in experiment [10] (ATCC22972, read-out: MIC Candida albicans ATCC 22972), 250 µg/mL; with Streptococcus pneumoniae (setting [20]) it was 125 µg/mL; in the experiment with Streptococcus pneumoniae (setting [21]), 1 µg/mL.
Consider `CN(C)c1ccc(C(c2c[nH]c3ccccc23)c2c[nH]c3ccccc23)cc1` [SP-BIM 2, [bis(indoly-3-yl)-4-dimethylaminophenyl]methane], for which the MIC in [1] (setting [11]), in experiment [2] (setting [12]), in experiment [3] (setting [13]), in experiment [4] (setting [14]), in experiment [5] (setting [15]) and in experiment [6] (setting [16]) was more than 250 µg/mL throughout. For the same compound, the MIC in experiment [7] (setting [17]) was more than 250 µg/mL; in experiment [8], 250 µg/mL; in experiment [9] (setting [18]) it was 250 µg/mL; in experiment [10] (setting [19]), 250 µg/mL; in the experiment with Streptococcus pneumoniae (setting [20]) it was 125 µg/mL; with Streptococcus pneumoniae (setting [21]), 1 µg/mL.
Turning to `COc1ccc2c(C(c3cccc(O)c3)c3c[nH]c4cc(OC)ccc34)c[nH]c2c1` [SP-BIM 19, bis(6-methoxyindoly-3-yl)-3-hydroxyphenylmethane], the MIC in [1] (setting [11]), in experiment [2] (setting [12]), in experiment [3] (setting [13]), in experiment [4] (setting [14]), in experiment [5] (setting [15]) and in [6] (setting [16]) was more than 250 µg/mL throughout. Moreover, the MIC is more than 250 µg/mL in experiment [7] (setting [17]); 250 µg/mL in experiment [8]; 250 µg/mL in [9] (setting [18]); 250 µg/mL in experiment [10] (setting [19]); 125 µg/mL in the experiment with Streptococcus pneumoniae (setting [20]); 1 µg/mL in the experiment with Streptococcus pneumoniae (setting [21]).
`COc1ccc2c(C(c3ccc([N+](=O)[O-])cc3)c3c[nH]c4cc(OC)ccc34)c[nH]c2c1` [SP-BIM 20, bis(6-methoxyindol-3-yl)-4-nitrophenylmethane]: the MIC in experiment [1] (setting [11]) was more than 250 µg/mL; in experiment [2] (setting [12]), more than 25 µg/mL; in experiment [3] (setting [13]), more than 250 µg/mL; in experiment [4] (setting [14]), more than 250 µg/mL; in experiment [5] (setting [15]), more than 250 µg/mL; in [6] (setting [16]), more than 250 µg/mL. Moreover, the MIC in experiment [7] (setting [17]) is more than 250 µg/mL; in experiment [8] it was 250 µg/mL; in experiment [9] (setting [18]) it was 250 µg/mL; in experiment [10] (setting [19]), 250 µg/mL; in the experiment on Streptococcus pneumoniae (setting [20]), 125 µg/mL; with Streptococcus pneumoniae (setting [21]), 1 µg/mL.
With `C[C@@H](O)[C@H]1C(=O)N2C(C(=O)O)=C(SCCN=CN)C[C@H]12` [Imipenem, imipenem], the results for the MIC in the experiment on MRSA and in the experiment on Klebsiella pneumoniae were 4 µg/mL and 2 µg/mL, respectively.
On to `O=[N+]([O-])c1ccc(C(c2c[nH]c3ccccc23)c2c[nH]c3ccccc23)cc1` [SP-BIM 8], for which the MIC in [1] (setting [11]), in experiment [2] (setting [12]), in [3] (setting [13]), in experiment [4] (setting [14]), in [5] (setting [15]) and in experiment [6] (setting [16]) was more than 250 µg/mL throughout. The MIC in [7] (setting [17]) was more than 250 µg/mL; in experiment [8], 250 µg/mL; in [9] (setting [18]), 250 µg/mL; in [10] (setting [19]), 250 µg/mL; with Streptococcus pneumoniae (setting [20]), 125 µg/mL; in the experiment with Streptococcus pneumoniae (setting [21]), 1 µg/mL.
For the compound `Oc1cc(Br)ccc1[C+](c1c[nH]c2ccccc12)c1c[nH]c2ccccc12` [SP-BIM 17, 4-bromo-2-hydroxyphenylbis(indol-3-yl)methylium], the MIC in experiment [1] (setting [11]), in [2] (setting [12]), in experiment [3] (setting [13]), in experiment [4] (setting [14]), in experiment [5] (setting [15]) and in experiment [6] (setting [16]) was more than 250 µg/mL in each case. Further, the MIC in experiment [7] (setting [17]) was more than 250 µg/mL; in [8], 250 µg/mL; in experiment [9] (setting [18]) it was 250 µg/mL; in experiment [10] (setting [19]) it was 250 µg/mL; with Streptococcus pneumoniae (setting [20]), 125 µg/mL; in the experiment with Streptococcus pneumoniae (setting [21]) it was 1 µg/mL.
On to `COc1ccccc1C(c1c[nH]c2ccccc12)c1c[nH]c2ccccc12` [SP-BIM 12, bis(indol-3-yl)-2-methoxyphenylmethane], for which the MIC in experiment [1] (setting [11]), in [2] (setting [12]), in experiment [3] (setting [13]), in experiment [4] (setting [14]), in [5] (setting [15]) and in experiment [6] (setting [16]) was more than 250 µg/mL throughout. In addition, the MIC in [7] (setting [17]) is more than 250 µg/mL; in experiment [8] it was 250 µg/mL; in experiment [9] (setting [18]), 250 µg/mL; in [10] (setting [19]), 250 µg/mL; in the experiment with Streptococcus pneumoniae (setting [20]) it was 125 µg/mL; in the experiment with Streptococcus pneumoniae (setting [21]), 1 µg/mL.
As to `O=[N+]([O-])c1cccc(C(c2c[nH]c3ccccc23)c2c[nH]c3ccccc23)c1` [SP-BIM 5, [bis(indol-3-yl)-3-nitrophenyl]methane], the MIC in [1] (setting [11]), in experiment [2] (setting [12]), in [3] (setting [13]), in experiment [4] (setting [14]), in [5] (setting [15]) and in experiment [6] (setting [16]) was more than 250 µg/mL each time. Moreover, the MIC in experiment [7] (setting [17]) is more than 250 µg/mL; in experiment [8], 250 µg/mL; in experiment [9] (setting [18]), 250 µg/mL; in experiment [10] (setting [19]) it was 250 µg/mL; with Streptococcus pneumoniae (setting [20]), 125 µg/mL; in the experiment with Streptococcus pneumoniae (setting [21]), 1 µg/mL.
